Measured values from US20110033560A1, “PREPARATION AND A COMPONENT INTENDED TO BE ADDED TO A TOBACCO PRODUCT” (BIOHIT OYJ, priority 2007, published 2011).

Tests used:
Assay type in all cases: in vivo, human
[1] = Salivary acetaldehyde during smoking while sucking the Example 1 tablet (Example 6); details: sucking tablet with 20 mg cysteine, one cigarette, after the first 5 minutes, two testees
Procedure: Two individuals tested the preparation prepared according to Example 1. The salivary acetaldehyde contents of the testees were measured before smoking and then after 5 minutes during smoking, i.e., 0 min, 5 min, 10 min, and 15 min after the testees started smoking. Each testee smoked one cigarette and, at the same time, saliva was collected from their mouths, as they sucked placebo tablets. Smoking lasted for 5 min. In another test, the testees repeated the study by sucking tablets containing 20 mg of cysteine.

[2] = Moistened cysteine filter in cigarette holder, salivary acetaldehyde during smoking (Example 9); details: filter and cysteine in solid form (not moistened)
Text: The entire filter of Marlboro Red was removed or, in some tests, a 2-3 mm piece of the original filter was left in the cigarette.
In the tests, the ready commercial cigarette holders/mouthpieces of Denicotea, www.denicotea.de, were used. In the cigarette holders/mouthpieces, plastic cylinder-shaped “containers” were used, in which the filter material was packed. The original content (intended for the removal of nicotine) of the containers was removed and replaced with the material that was used in the study. The outer dimensions of the container were: diameter 8 mm and length 35 mm.
Cellulose wadding (c. 100 mg), filter paper (Whattman),
Cysteine was dissolved in distilled water, 30-180 mg of L-Cysteine/1 ml. The manufacturer: Fluka, 30089.
[…] After this, the testees smoked the cigarettes that had been placed in the mouthpieces. During smoking, saliva samples were collected from those participating in the tests and the acetaldehyde in the saliva was analyzed by gas chromatography, Perkin-Elmer, HS40, headspace Gas Chromatograph.

[3] = Salivary acetaldehyde during smoking with L-cysteine sucking tablets, gas chromatography (Example 7); details: for average salivary acetaldehyde content immediately after smoking: 5 min smoking
Procedure: Five smokers (of the age of 29±2.8) participated in the study, in which three cigarettes were smoked (with cleaning periods in between). While smoking each cigarette (in 5 minutes time), the voluntaries sucked tablets blindfold, containing a placebo, 1.25 mg, 2.5 mg, 5 mg, 10 mg or 20 mg of L-cysteine. The acetaldehyde in the saliva samples was analysed by gas chromatography after 0, 5, 10, 20 minutes from starting to smoke.

[4] = Salivary acetaldehyde after alcohol with slow-release buccal tablet (Example 10); details: buccal tablet 100 mg, alcohol 0.8 g/kg, every 20 min up to 320 min, FIG. 10
Procedure: The testees enjoyed alcohol in amounts of 0.8 g per kilo of body weight. Thereafter, the testees attached, under their upper lip, a buccal tablet that contained 100 mg of N-acetyl cysteine and that slowly released the acetyl cysteine. The salivary acetaldehyde levels were measured at intervals of 20 minutes up to 320 minutes. Throughout, the acetaldehyde contents of those using the acetyl cysteine tablets were lower than of those using the placebo.

N[C@@H](CS)C(=O)O [L-cysteine]
salivary acetaldehyde content [1]: non-measurable level | filtering of acetaldehyde [2]: do not filter the acetaldehyde | reduction of amount of acetaldehyde compared with placebo ([3]; 1.25 mg tablet): about two thirds | average salivary acetaldehyde content immediately after smoking ([3]; 5 mg L-cysteine sucking tablet): 0 µM | inactivation of carcinogenic acetaldehyde in saliva during smoking ([3]; 5 mg, delivered with a melting tablet): completely inactivated | average salivary acetaldehyde content immediately after smoking ([3]; 10 mg L-cysteine sucking tablet): 0 µM | average salivary acetaldehyde content immediately after smoking ([3]; 20 mg L-cysteine sucking tablet): 0 µM | removal from saliva of acetaldehyde originating from tobacco ([3]; tablets of 5 mg, 10 and 20 mg, FIG. 4): all of the acetaldehyde

CC(=O)N[C@@H](CS)C(=O)O [N-acetyl cysteine]
salivary acetaldehyde contents compared with placebo [4]: lower
